This assay addresses T1, TYK2 (Homo sapiens, UniProt P29597).
T1 construct: Degradation of TYK2 in cells was quantitatively measured using Meso Scale Discovery (MSD) technology; endogenous in cells; host or cells: OCI-LY10
The assay can be described thus: TYK2 MSD degradation in OCI-LY10 cells. It is filed as cell-based. The following applies: TYK2 degradation in OCI-LY10 cells, 4 to 24 hours incubation; for DC50: read-out: TYK2 MSD OCI-LY10 Rel-DC50. The gist of the method: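 OCI-LY10 cells were treated with 9-dose 1:3 series (top 1 to 10 μM final) for 4 to 24 hours at 37° C. Lysate TYK2 quantified by MSD sandwich immunoassay; DC50 and Dmax from four-parameter inhibitor vs. response fit.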

Structures are written as SMILES.

The DC50 is the midpoint of the concentration-degradation curve. What is called Dmax is the largest share of the target that was removed. A low value points to a partial loss of target.

T1 sequence (P29597 whole entry): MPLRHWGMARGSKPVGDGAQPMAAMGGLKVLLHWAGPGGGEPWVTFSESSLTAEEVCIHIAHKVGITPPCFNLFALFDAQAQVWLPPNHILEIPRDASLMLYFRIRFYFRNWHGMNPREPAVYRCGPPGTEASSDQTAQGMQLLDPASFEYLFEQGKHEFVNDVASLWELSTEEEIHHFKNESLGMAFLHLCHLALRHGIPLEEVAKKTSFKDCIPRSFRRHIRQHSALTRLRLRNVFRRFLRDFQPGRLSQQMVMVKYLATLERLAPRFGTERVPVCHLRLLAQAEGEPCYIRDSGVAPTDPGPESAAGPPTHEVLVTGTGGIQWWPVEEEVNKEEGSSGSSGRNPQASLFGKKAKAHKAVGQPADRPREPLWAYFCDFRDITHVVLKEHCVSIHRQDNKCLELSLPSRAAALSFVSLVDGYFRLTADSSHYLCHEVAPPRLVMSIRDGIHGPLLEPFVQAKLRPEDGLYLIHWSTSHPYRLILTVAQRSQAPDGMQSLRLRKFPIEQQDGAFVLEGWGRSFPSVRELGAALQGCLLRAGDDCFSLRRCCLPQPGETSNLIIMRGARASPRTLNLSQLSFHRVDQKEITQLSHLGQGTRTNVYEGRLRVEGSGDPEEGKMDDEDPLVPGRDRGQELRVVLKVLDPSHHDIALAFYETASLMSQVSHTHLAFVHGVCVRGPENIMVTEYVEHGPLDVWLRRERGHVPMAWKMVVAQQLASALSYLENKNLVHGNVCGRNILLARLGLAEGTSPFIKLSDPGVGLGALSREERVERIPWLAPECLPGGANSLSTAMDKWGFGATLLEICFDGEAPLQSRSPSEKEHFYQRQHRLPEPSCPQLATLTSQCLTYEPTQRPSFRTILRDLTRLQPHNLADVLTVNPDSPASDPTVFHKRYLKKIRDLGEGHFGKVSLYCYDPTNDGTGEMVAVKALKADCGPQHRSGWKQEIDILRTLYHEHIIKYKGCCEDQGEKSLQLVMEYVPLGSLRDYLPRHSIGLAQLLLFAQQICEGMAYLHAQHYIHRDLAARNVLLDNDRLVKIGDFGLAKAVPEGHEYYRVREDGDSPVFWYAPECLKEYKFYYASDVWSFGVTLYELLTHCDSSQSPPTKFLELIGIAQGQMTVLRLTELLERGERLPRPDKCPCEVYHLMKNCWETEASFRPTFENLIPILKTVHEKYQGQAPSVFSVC

Consider `CNc1cc(N2CCc3c(-c4ncc(CN5CC6(CCN(C(=O)c7cc(N8CCC(=O)NC8=O)c(C)cn7)CC6(F)F)C5)cc4F)cc(F)cc32)nn2c(C(=O)N[C@@H]3C[C@@H]3F)cnc12` [I-971], for which the “TYK2 MSD OCI-LY10 Dmax %” value was “B (B (90 to >75%))” and the DC50 is under 1 nM.
For `CNc1cc(N2CCc3c(-c4ccc(CN5CC6(CCN(C(=O)c7ccc(C(F)F)c(N8CCC(=O)NC8=O)c7)CC6(F)F)C5)cn4)cccc32)nn2c(C(=O)N[C@@H]3C[C@@H]3F)cnc12` [I-977], the “TYK2 MSD OCI-LY10 Dmax %” value is given as “C (C (75 to 50%))” and the DC50 was under 10 nM.
Regarding `CNc1cc(N2CCc3c(-c4ccc(CN5CCC6(CCN(C(=O)c7ccc(C(F)(F)F)c(N8CCC(=O)NC8=O)c7)CC6)C(F)(F)C5)cn4)cccc32)nn2c(C(=O)N[C@@H]3C[C@@H]3F)cnc12` [I-978], the “TYK2 MSD OCI-LY10 Dmax %” value is “D (D (<50%))” and the DC50 is under 10 nM.
On to `CNc1cc(N2CCc3c(-c4ccc(CN5CCC6(CCN(C(=O)c7ccc(C(F)F)c(N8CCC(=O)NC8=O)c7)CC6)C(F)(F)C5)cn4)cccc32)nn2c(C(=O)N[C@@H]3C[C@@H]3F)cnc12` [I-980], for which the “TYK2 MSD OCI-LY10 Dmax %” value is on record as “C (C (75 to 50%))” and the DC50 is under 10 nM.
As for `CNc1cc(N2CCc3c(-c4ncc(CN5CC6(CCN(C(=O)c7cc(C)c(Cl)c(N8CCC(=O)NC8=O)c7)CC6(F)F)C5)cc4F)cccc32)nn2c(C(=O)NC3CC3)cnc12` [I-982], the “TYK2 MSD OCI-LY10 Dmax %” value is reported as “B (B (90 to >75%))” and the DC50 is under 1 nM.
With `CNc1cc(N2CCc3c(-c4ncc(CN5CC6(CCN(C(=O)c7cc(C)c(C)c(N8CCC(=O)NC8=O)c7)CC6(F)F)C5)cc4F)cccc32)nn2c(C(=O)N[C@@H]3C[C@@H]3F)cnc12` [I-989], the “TYK2 MSD OCI-LY10 Dmax %” value is “A (A (>90%))” and the DC50 was under 1 nM.
Turning to `CNc1cc(N2CCc3c(-c4ncc(CN5CC6(CCN(C(=O)c7cc(C)c(Cl)c(N8CCC(=O)NC8=O)c7)CC6(F)F)C5)cc4F)cccc32)nn2c(C(=O)NC3CCCC3)cnc12` [I-990], the “TYK2 MSD OCI-LY10 Dmax %” value is recorded as “B (B (90 to >75%))” and the DC50 is under 10 nM.
Regarding `CNc1cc(N2CCc3c(-c4ncc(CN5CC6(CCN(C(=O)c7cc(C)c(Cl)c(N8CCC(=O)NC8=O)c7)CC6(F)F)C5)cc4F)cccc32)nn2c(C(=O)NC3CCC3)cnc12` [I-991], the “TYK2 MSD OCI-LY10 Dmax %” value is “B (B (90 to >75%))” and the DC50 was under 10 nM.
Consider `CNc1cc(N2CCc3c(-c4ncc(CN5CC6(CCN(C(=O)c7cc(C)c(C)c(N8CCC(=O)NC8=O)c7)CC6(F)F)C5)cc4F)cccc32)nn2c(C(=O)NC3CCC3OC)cnc12` (stereo not drawn) [I-993], for which the “TYK2 MSD OCI-LY10 Dmax %” value was “A (A (>90%))” and the DC50 was under 1 nM.
For `CNc1cc(N2CCc3c(-c4ncc(CN5CC6(CCN(C(=O)c7cc(F)c(Cl)c(N8CCC(=O)NC8=O)c7)CC6(F)F)C5)cc4F)cccc32)nn2c(C(=O)N[C@@H]3C[C@@H]3F)cnc12` [I-994] the same measures were “A (A (>90%))” and under 1 nM.
For `CNc1cc(N2CCc3c(CN4CCC(N5CCC6(CCN(C(=O)c7cc(C)c(C)c(N8CCC(=O)NC8=O)c7)CC6)CC5)C(F)(F)C4)cccc32)nn2c(C(=O)N[C@@H]3CC[C@H]3OC)cnc12` (stereo partly drawn) [I-995] the same measures were “A (A (>90%))” and under 1 nM.
In the case of `CNc1cc(N2CCc3c(-c4ccc(CN5CCC6(CCN(C(=O)c7cc(C)c(Cl)c(N8CCC(=O)NC8=O)c7)CC6)C(F)(F)C5)cn4)cccc32)nn2c(C(=O)NC3CCC3(F)F)cnc12` (stereo not drawn) [I-996], the “TYK2 MSD OCI-LY10 Dmax %” value is listed as “B (B (90 to >75%))” and the DC50 was under 10 nM.
As for `CNc1cc(N2CCc3c(-c4ccc(OC5CC6(CCN(C(=O)c7cc(C)c(Cl)c(N8CCC(=O)NC8=O)c7)CC6)C5)cn4)cccc32)nn2c(C(=O)N[C@@H]3CC[C@H]3OC)cnc12` [I-997], the “TYK2 MSD OCI-LY10 Dmax %” value is “A (A (>90%))” and the DC50 was under 1 nM.
`CNc1cc(N2CCc3c(-c4ccc(CN5CCC6(CCN(C(=O)c7cc(C)c(Cl)c(N8CCC(=O)NC8=O)c7)CC6)C(F)(F)C5)cn4)cccc32)nn2c(C(=O)NC3CCCC3(F)F)cnc12` (stereo not drawn) [I-998]: the “TYK2 MSD OCI-LY10 Dmax %” value was “C (C (75 to 50%))” and the DC50 was in the range of 10 to 100 nM.
For the molecule `CNc1cc(N2CCc3c(CN4CCC(N5CCC6(CCN(C(=O)c7cc(Cl)c(C)c(N8CCC(=O)NC8=O)c7)CC6)CC5)C(F)(F)C4)cccc32)nn2c(C(=O)NC3CCC3OC)cnc12` (stereo not drawn) [I-1000], the “TYK2 MSD OCI-LY10 Dmax %” value was “A (A (>90%))” and the DC50 is under 1 nM.
For `CNc1cc(N2CCc3c(-c4ncc(CN5CC6(CCN(C(=O)c7ccc(C)c(N8CCC(=O)NC8=O)c7)CC6(F)F)C5)cc4F)cccc32)nn2c(C(=O)N[C@@H]3CC[C@H]3OC)cnc12` [I-1004] the same measures were “A (A (>90%))” and under 1 nM.
In the case of `CNc1cc(N2CCc3c(-c4ncc(CN5CC6(CCN(C(=O)c7cc(N8CCC(=O)NC8=O)c(Cl)cc7F)CC6(F)F)C5)cc4F)cccc32)nn2c(C(=O)NC3CCC3OC)cnc12` (stereo not drawn) [I-1005], the “TYK2 MSD OCI-LY10 Dmax %” value is given as “A (A (>90%))” and the DC50 was under 1 nM.
For `CNc1cc(N2CCc3c(-c4ccc(CN5CCC(N6CCC(COc7ccc(Cl)c(N8CCC(=O)NC8=O)c7)CC6)CC5)cn4)cccc32)nn2c(C(=O)NC3CCC3OC)cnc12` (stereo not drawn) [I-1006], the “TYK2 MSD OCI-LY10 Dmax %” value was “B (B (90 to >75%))” and the DC50 was under 10 nM.
The matching figures for `CNc1cc(N2CCc3c(-c4ncc(CN5CC6(CCN(C(=O)c7cc(N8CCC(=O)NC8=O)c(C)cc7F)CC6(F)F)C5)cc4F)cccc32)nn2c(C(=O)NC3CCC3OC)cnc12` (stereo not drawn) [I-1007]: “A (A (>90%))” and under 1 nM.
On to `CNc1cc(N2CCc3c(-c4ncc(CN5CC6(CCN(C(=O)c7cc(Cl)c(C)c(N8CCC(=O)NC8=O)c7)CC6(F)F)C5)cc4F)cccc32)nn2c(C(=O)N[C@@H]3C[C@@H]3F)cnc12` [I-1008, 6-(4-(5-((7-(3-chloro-5-(2,4-dioxotetrahydropyrimidin-1(2H)-yl)-4-methylbenzoyl)-5,5-difluoro-2,7-diazaspiro[3.5]nonan-2-yl)methyl)-3-fluoropyridin-2-yl)indolin-1-yl)-N-((1R,2S)-2-fluorocyclopropyl)-8-(methylamino)imidazo[1,2-b]pyridazine-3-carboxamide], for which the Dmax was over 90% and the DC50 was under 1 nM.
Consider `CNc1cc(N2CCc3c(-c4ccc(CN5CCC6(CCC(N(C)c7ccc(Cl)c(N8CCC(=O)NC8=O)c7)CC6)CC5)cn4)cccc32)nn2c(C(=O)N[C@@H]3CC[C@H]3OC)cnc12` [I-1009], for which the “TYK2 MSD OCI-LY10 Dmax %” value was “B (B (90 to >75%))” and the DC50 was under 10 nM.
Regarding `CNc1cc(N2CCc3c(-c4ccc(CN5CCC6(CCC(Oc7ccc(Cl)c(N8CCC(=O)NC8=O)c7)CC6)C(F)(F)C5)cn4)cccc32)nn2c(C(=O)NC3CCC3OC)cnc12` (stereo not drawn) [I-1010], the “TYK2 MSD OCI-LY10 Dmax %” value is reported as “B (B (90 to >75%))” and the DC50 is under 10 nM.
As for `CNc1cc(N2CCc3c(-c4ccc(CN5CC6(CCN(Cc7ccc(Cl)c(N8CCC(=O)NC8=O)c7)CC6(F)F)C5)cn4)cccc32)nn2c(C(=O)NC3CCC3OC)cnc12` (stereo not drawn) [I-1011], the “TYK2 MSD OCI-LY10 Dmax %” value is “B (B (90 to >75%))” and the DC50 is under 10 nM.
For `CNc1cc(N2CCc3c(-c4ncc(CN5CC6(CCN(C(=O)c7cc(N8CCC(=O)NC8=O)c(C)cn7)CC6(F)F)C5)cc4F)cccc32)nn2c(C(=O)N[C@@H]3C[C@@H]3F)cnc12` [I-1012], the “TYK2 MSD OCI-LY10 Dmax %” value is reported as “A (A (>90%))” and the DC50 was under 1 nM.

Values taken from patent US20260125400A1, “TYK2 DEGRADERS AND USES THEREOF” (Kymera Therapeutics, Inc., priority 2023, published 2026).
